Results: PubChem BioAssay (NCI)
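Dose response: 5 concentrations. Exposure: 48 h. Format: 96-well plates. Endpoint: linear interpolation; highest concentration if not reached. The concentration for 50% growth inhibition is given as GI50. TGI is the concentration that stops growth completely.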

Experiments:
Experiment in all cases: DTP human tumour cell line panel, 48 h
[1] = test system: SK-MEL-2 melanoma
[2] = test system: SNB-78 CNS
[3] = test system: RXF 393 renal
[4] = test system: SR leukemia
[5] = test system: HCC-2998 colon
[6] = test system: MALME-3M melanoma
[7] = test system: UO-31 renal
[8] = test system: SW-620 colon
[9] = test system: LOX IMVI melanoma
[10] = test system: HCT-15 colon
[11] = test system: K-562 leukemia
[12] = test system: IGROV1 ovarian
[13] = test system: KM12 colon
[14] = test system: OVCAR-5 ovarian
[15] = test system: SN12C renal
[16] = test system: 786-0 renal
[17] = test system: ACHN renal
[18] = test system: EKVX NSCLC
[19] = test system: LXFL 529 NSCLC
[20] = test system: M14 melanoma
[21] = test system: UACC-62 melanoma
[22] = test system: SK-OV-3 ovarian
[23] = test system: A549 NSCLC
[24] = test system: DLD-1 colon
[25] = test system: CCRF-CEM leukemia
[26] = test system: TK-10 renal
[27] = test system: NCI-H226 lung
[28] = test system: SF-539 CNS
[29] = test system: SF-295 CNS
[30] = test system: SNB-19 CNS
[31] = test system: COLO 205 colon
[32] = test system: OVCAR-8 ovarian
[33] = test system: HOP-92 NSCLC
[34] = test system: NCI-H23 lung
[35] = test system: UACC-257 melanoma
[36] = test system: RPMI-8226 leukemia
[37] = test system: HL-60(TB) leukemia
[38] = test system: SF-268 CNS
[39] = test system: HOP-18 NSCLC
[40] = test system: SNB-75 CNS
[41] = test system: SK-MEL-28 melanoma
[42] = test system: MOLT-4 leukemia
[43] = test system: A498 renal
[44] = test system: M19-MEL melanoma
[45] = test system: HOP-62 NSCLC
[46] = test system: DMS 114 small cell lung
[47] = test system: DMS 273 small cell lung
[48] = test system: NCI-H522 lung
[49] = test system: KM20L2 colon
[50] = test system: HT29 colon
[51] = test system: HCT-116 colon
[52] = test system: SK-MEL-5 melanoma
[53] = test system: OVCAR-4 ovarian
[54] = test system: CAKI-1 renal
[55] = test system: U251 CNS
[56] = test system: NCI-H460 lung
[57] = test system: OVCAR-3 ovarian
[58] = test system: HS 578T breast
[59] = test system: MCF7 breast
[60] = test system: PC-3 prostate
[61] = test system: BT-549 breast
[62] = test system: MDA-MB-231 breast
[63] = test system: NCI/ADR-RES ovarian
[64] = test system: DU-145 prostate
[65] = test system: MDA-MB-435
[66] = test system: MDA-N
[67] = test system: T-47D breast

## CC(C)CC(=O)[O-].CC(C)CC(=O)[O-].N.N.N.N.[Co+3].[O-][Cl+3]([O-])([O-])O.[O-][Cl+3]([O-])([O-])[O-]
[1]
  GI50: > 100 µM
  TGI: > 100 µM
[2]
  GI50: > 100 µM
  TGI: > 100 µM
[3]
  GI50: > 100 µM
  TGI: > 100 µM
[4]
  GI50: > 100 µM
  TGI: > 100 µM
[5]
  GI50: > 100 µM
  TGI: > 100 µM
[6]
  GI50: > 100 µM
  TGI: > 100 µM
[7]
  GI50: > 100 µM
  TGI: > 100 µM
[8]
  GI50: > 100 µM
  TGI: > 100 µM
[9]
  GI50: > 100 µM
  TGI: > 100 µM
[10]
  GI50: > 100 µM
  TGI: > 100 µM
[11]
  GI50: > 100 µM
  TGI: > 100 µM
[12]
  GI50: > 100 µM
  TGI: > 100 µM
[13]
  GI50: > 100 µM
  TGI: > 100 µM
[14]
  GI50: > 100 µM
  TGI: > 100 µM
[15]
  GI50: > 100 µM
  TGI: > 100 µM
[16]
  GI50: > 100 µM
  TGI: > 100 µM
[17]
  GI50: > 100 µM
  TGI: > 100 µM
[18]
  GI50: > 100 µM
  TGI: > 100 µM
[19]
  GI50: > 100 µM
  TGI: > 100 µM
[20]
  GI50: > 100 µM
  TGI: > 100 µM
[21]
  GI50: > 100 µM
  TGI: > 100 µM
[22]
  GI50: > 100 µM
  TGI: > 100 µM
[23]
  GI50: > 100 µM
  TGI: > 100 µM
[24]
  GI50: > 100 µM
  TGI: > 100 µM
[25]
  GI50: > 100 µM
  TGI: > 100 µM
[26]
  GI50: > 100 µM
  TGI: > 100 µM
[27]
  GI50: > 100 µM
  TGI: > 100 µM
[28]
  GI50: > 100 µM
  TGI: > 100 µM
[29]
  GI50: > 100 µM
  TGI: > 100 µM
[30]
  GI50: > 100 µM
  TGI: > 100 µM
[31]
  GI50: > 100 µM
  TGI: > 100 µM
[32]
  GI50: > 100 µM
  TGI: > 100 µM
[33]
  GI50: > 100 µM
  TGI: > 100 µM
[34]
  GI50: > 100 µM
  TGI: > 100 µM
[35]
  GI50: > 100 µM
  TGI: > 100 µM
[36]
  GI50: > 100 µM
  TGI: > 100 µM
[37]
  GI50: > 100 µM
  TGI: > 100 µM
[38]
  GI50: > 100 µM
  TGI: > 100 µM
[39]
  GI50: > 100 µM
  TGI: > 100 µM
[40]
  GI50: > 100 µM
  TGI: > 100 µM
[41]
  GI50: > 100 µM
  TGI: > 100 µM
[42]
  GI50: > 100 µM
  TGI: > 100 µM

## CNc1nc(N)cc(=O)[nH]1
[1]
  TGI: > 100 µM
[2]
  TGI: > 100 µM
[5]
  TGI: > 100 µM
[6]
  TGI: > 100 µM
[7]
  TGI: > 100 µM
[8]
  TGI: > 100 µM
[9]
  TGI: > 100 µM
[10]
  TGI: > 100 µM
[43]
  TGI: > 100 µM
[11]
  TGI: > 100 µM
[12]
  TGI: > 100 µM
[13]
  TGI: > 100 µM
[14]
  TGI: > 100 µM
[15]
  TGI: > 100 µM
[16]
  TGI: > 100 µM
[17]
  TGI: > 100 µM
[18]
  TGI: > 100 µM
[44]
  TGI: > 100 µM
[45]
  TGI: > 100 µM
[19]
  TGI: > 100 µM
[46]
  TGI: > 100 µM
[20]
  TGI: > 100 µM
[21]
  TGI: > 100 µM
[22]
  TGI: > 100 µM
[23]
  TGI: > 100 µM
[24]
  TGI: > 100 µM
[25]
  TGI: > 100 µM
[26]
  TGI: > 100 µM
[47]
  TGI: > 100 µM
[27]
  TGI: > 100 µM
[48]
  TGI: > 100 µM
[29]
  TGI: > 100 µM
[30]
  TGI: > 100 µM
[49]
  TGI: > 100 µM
[31]
  TGI: > 100 µM
[50]
  TGI: > 100 µM
[51]
  TGI: > 100 µM
[52]
  TGI: > 100 µM
[32]
  TGI: > 100 µM
[34]
  TGI: > 100 µM
[53]
  TGI: > 100 µM
[35]
  TGI: > 100 µM
[36]
  TGI: > 100 µM
[54]
  TGI: > 100 µM
[37]
  TGI: > 100 µM
[38]
  TGI: > 100 µM
[55]
  TGI: > 100 µM
[56]
  TGI: > 100 µM
[40]
  TGI: > 100 µM
[41]
  TGI: > 100 µM
[57]
  TGI: > 100 µM
[42]
  TGI: > 100 µM

## O=C1C=C(Nc2cccnc2)c2ccccc2C1=O
[1]
  TGI: 25.1 µM
[2]
  TGI: 38 µM
[3]
  TGI: 38 µM
[4]
  TGI: 37 µM
[5]
  TGI: 30.5 µM
[6]
  TGI: 5.35 µM
[7]
  TGI: 24.2 µM
[8]
  TGI: 18.7 µM
[9]
  TGI: 9.9 µM
[10]
  TGI: 29.3 µM
[43]
  TGI: 22.3 µM
[11]
  TGI: 22.7 µM
[58]
  TGI: 8.33 µM
[12]
  TGI: 18.7 µM
[13]
  TGI: 23.4 µM
[59]
  TGI: 8.2 µM
[14]
  TGI: 18.4 µM
[15]
  TGI: 21.5 µM
[16]
  TGI: 23.8 µM
[17]
  TGI: 20.5 µM
[18]
  TGI: 26.7 µM
[45]
  TGI: 12.9 µM
[19]
  TGI: > 51.3 µM
[46]
  TGI: 5.01 µM
[20]
  TGI: 6.76 µM
[21]
  TGI: 3.31 µM
[22]
  TGI: 22.1 µM
[60]
  TGI: 52.4 µM
[61]
  TGI: 3.83 µM
[23]
  TGI: 13.3 µM
[62]
  TGI: 20.4 µM
[24]
  TGI: 20 µM
[25]
  TGI: 51.9 µM
[26]
  TGI: 34.5 µM
[47]
  TGI: > 39.6 µM
[63]
  TGI: 23.9 µM
[27]
  TGI: 38.1 µM
[48]
  TGI: 15.5 µM
[28]
  TGI: 8.41 µM
[29]
  TGI: 9.09 µM
[64]
  TGI: 14.1 µM
[30]
  TGI: 24.8 µM
[49]
  TGI: > 62.3 µM
[31]
  TGI: 38.6 µM
[50]
  TGI: 33.7 µM
[51]
  TGI: 25.6 µM
[52]
  TGI: 2.58 µM
[32]
  TGI: 23.1 µM
[33]
  TGI: 27.1 µM
[34]
  TGI: 9.41 µM
[53]
  TGI: 19.9 µM
[35]
  TGI: 4.48 µM
[36]
  TGI: 51.3 µM
[65]
  TGI: 1.39 µM
[54]
  TGI: 18.6 µM
[37]
  TGI: 23 µM
[66]
  TGI: 1.42 µM
[38]
  TGI: 20.9 µM
[39]
  TGI: 22 µM
[55]
  TGI: 24.4 µM
[56]
  TGI: 12.5 µM
[67]
  TGI: 43.8 µM
[40]
  TGI: 5.45 µM
[41]
  TGI: 13.5 µM
[57]
  TGI: 11.6 µM
[42]
  TGI: 46.6 µM

## CC1(C=O)C(=O)CCC2(C)C3CC(=O)OC3CCC12 (centres undefined)
[1]
  TGI: > 100 µM
[3]
  TGI: > 100 µM
[5]
  TGI: > 100 µM
[6]
  TGI: > 100 µM
[7]
  TGI: > 100 µM
[8]
  TGI: > 100 µM
[9]
  TGI: > 100 µM
[10]
  TGI: > 100 µM
[11]
  TGI: > 100 µM
[12]
  TGI: > 100 µM
[13]
  TGI: > 100 µM
[14]
  TGI: > 100 µM
[15]
  TGI: > 100 µM
[16]
  TGI: > 100 µM
[17]
  TGI: > 100 µM
[18]
  TGI: > 100 µM
[44]
  TGI: > 100 µM
[45]
  TGI: > 100 µM
[19]
  TGI: > 100 µM
[46]
  TGI: > 100 µM
[20]
  TGI: > 100 µM
[21]
  TGI: > 100 µM
[22]
  TGI: > 100 µM
[23]
  TGI: > 100 µM
[24]
  TGI: > 100 µM
[25]
  TGI: > 100 µM
[26]
  TGI: > 100 µM
[47]
  TGI: > 100 µM
[48]
  TGI: > 100 µM
[28]
  TGI: > 100 µM
[29]
  TGI: > 100 µM
[30]
  TGI: > 100 µM
[49]
  TGI: > 100 µM
[31]
  TGI: > 100 µM
[50]
  TGI: > 100 µM
[52]
  TGI: > 100 µM
[32]
  TGI: > 100 µM
[33]
  TGI: > 100 µM
[34]
  TGI: > 100 µM
[53]
  TGI: > 100 µM
[35]
  TGI: > 100 µM
[36]
  TGI: > 100 µM
[54]
  TGI: > 100 µM
[37]
  TGI: > 100 µM
[38]
  TGI: > 100 µM
[39]
  TGI: > 100 µM
[55]
  TGI: > 100 µM
[56]
  TGI: > 100 µM
[40]
  TGI: > 100 µM
[41]
  TGI: > 100 µM
[57]
  TGI: > 100 µM
[42]
  TGI: > 100 µM
